From the supplement of paper PMC10307832

How the values were obtained:
Test in all cases: relative viability (nuclei count vs DMSO), 5 days (fraction); higher = more cells survive
Veliparib = compound: C[C@]1(c2nc3c(C(N)=O)cccc3[nH]2)CCCN1 [Veliparib]
Outline: (§1)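 On vehicle-anchored 1536-well plates, lung cancer cell lines held overnight at 37 °C were pinned with five library-drug doses (not always all listed) spaced by √10. With no medium change over 5 days, they were then fixed, permeabilised and Hoechst-stained in one step and imaged at 4×. MetaXpress counted nuclei, and viability is the median across plates of treated-well over vehicle-well nuclei. Acceptance needed control CV below 25% and at least one doubling.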

[1] = compound: COC1=CC=C(C=C1)CN2C=CC3=C2C=C(C=C3)C(=O)NO
Outline: as §1

Veliparib + Pemetrexed = compound: C[C@]1(c2nc3c(C(N)=O)cccc3[nH]2)CCCN1 [Veliparib] + Nc1nc2[nH]cc(CCc3ccc(C(=O)N[C@@H](CCC(=O)O)C(=O)O)cc3)c2c(=O)[nH]1 [Pemetrexed] (partner 0.2 µM)
Outline: (§2)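 Nuclei were stained with Hoechst during a one-step fixation (final 0.05% Triton X-100, 1% formaldehyde, 1 ug/ml Hoechst) carried out 5 days after dosing, then counted on 4× images. The cells, lung cancer lines in 1536-well plates, had been dosed by pin tool the day after seeding with one drug alone or a fixed anchor-drug dose plus five library-drug doses (not always all listed) in √10 steps. Relative viability is the nuclei count in treated wells divided by that in vehicle wells, and each value is the median of duplicate plates.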

[2] = compound: COC1=CC=C(C=C1)CN2C=CC3=C2C=C(C=C3)C(=O)NO + COc1cccc2cc(-c3nc([C@H]4CC[C@H](C(=O)O)CC4)n4ncnc(N)c34)[nH]c12 [OSI-027] (partner 0.5 µM)
Outline: as §2

Row | Cell Line | relative viability (Veliparib; 0.02 µM) | relative viability (Veliparib; 0.06325 µM) | relative viability (Veliparib; 0.2 µM) | relative viability (Veliparib; 0.6325 µM) | relative viability (Veliparib; 2 µM) | relative viability ([1]; 0.08 µM) | relative viability ([1]; 0.253 µM) | relative viability ([1]; 0.8 µM) | relative viability ([1]; 2.53 µM) | relative viability ([1]; 8 µM) | relative viability (Veliparib + Pemetrexed; first compound 0.02 µM) | relative viability (Veliparib + Pemetrexed; first compound 0.06325 µM) | relative viability (Veliparib + Pemetrexed; first compound 0.2 µM) | relative viability (Veliparib + Pemetrexed; first compound 0.6325 µM) | relative viability (Veliparib + Pemetrexed; first compound 2 µM) | relative viability ([2]; first compound 0.08 µM) | relative viability ([2]; first compound 0.253 µM) | relative viability ([2]; first compound 0.8 µM) | relative viability ([2]; first compound 2.53 µM) | relative viability ([2]; first compound 8 µM)
1 | HCC-78 | 0.987 | 0.829 | 0.949 | 0.828 | 0.888 | 0.803 | 0.876 | 1.01 | 1.02 | 0.917 | 0.909 | 0.925 | 0.91 | 0.494 | 0.853 | 0.4 | 0.344 | 0.341 | 0.355 | 0.366
2 | HCC-366 | 1.03 | 0.992 | 1 | 1.01 | 1.03 | 0.791 | 0.993 | 0.973 | 0.964 | 1.01 | 0.178 | 0.204 | 0.227 | 0.185 | 0.207 | 0.486 | 1.03 | 0.978 | 0.896 | 0.772
3 | HCC-827 | 0.986 | 1.03 | 1 | 0.977 | 1.07 | 1.06 | 0.935 | 0.997 | 1.03 | 0.97 | 0.25 | 0.282 | 0.256 | 0.215 | 0.273 | 0.766 | 0.712 | 0.81 | 0.791 | 0.761
4 | HOP-62 | 0.934 | 0.909 | 0.963 | 0.976 | 1.02 | 0.865 | 1.01 | 0.992 | 1.03 | 0.958 | 0.311 | 0.376 | 0.365 | 0.329 | 0.373 | 0.729 | 0.888 | 0.909 | 0.871 | 0.758
5 | IA-LM | 0.918 | 0.831 | 0.952 | 0.896 | 0.886 | 0.91 | 0.949 | 1.03 | 1.08 | 0.868 |  |  |  |  |  |  |  |  |  | 
6 | LC-2-ad | 0.608 | 0.944 | 0.977 | 0.941 | 0.867 | 0.937 | 0.977 | 1.04 | 0.976 | 0.963 | 0.277 | 0.277 | 0.273 | 0.263 | 0.287 | 0.793 | 0.853 | 0.826 | 0.979 | 0.671
7 | LCLC-97TM1 | 0.903 | 0.925 | 0.897 | 0.912 | 0.993 |  | 1.03 | 1.02 | 0.942 | 0.887 | 0.19 | 0.173 | 0.177 | 0.141 | 0.189 | 0.346 | 0.531 | 0.546 | 0.342 | 0.374
8 | LCLC-103H | 1 | 0.893 | 0.999 | 1.01 | 0.969 | 1.03 | 1.01 | 1.01 | 0.984 | 0.973 | 0.447 | 0.49 | 0.454 | 0.422 | 0.478 | 0.441 | 0.529 | 0.534 | 0.388 | 0.397
9 | LK-2 | 0.861 | 1.06 | 1.08 | 0.916 | 0.964 |  | 1.03 | 1.07 | 0.992 | 0.949 | 0.324 | 0.307 | 0.311 | 0.203 | 0.299 |  | 0.289 | 0.244 | 0.195 | 0.208
10 | LOU-NH91 | 0.941 | 0.893 | 1.01 | 0.931 | 0.992 | 0.717 | 0.95 | 1 | 0.991 | 0.944 | 0.394 | 0.374 | 0.39 | 0.374 | 0.374 | 0.761 | 0.699 | 0.729 | 0.749 | 0.709
11 | LU99A | 0.984 | 0.902 | 0.771 | 0.863 | 0.994 |  | 0.932 | 1.11 | 0.916 | 0.932 | 0.207 | 0.184 | 0.205 | 0.196 | 0.181 |  | 0.326 | 0.295 | 0.259 | 0.258
12 | LXF-289 | 0.996 | 0.992 | 1.03 | 0.941 | 1 |  | 1.01 | 1 | 0.992 | 0.992 | 0.897 | 1.02 | 0.913 | 0.856 | 0.997 |  | 0.823 | 0.896 | 0.908 | 0.716
13 | NCI-H23 | 0.89 | 0.77 | 0.948 | 0.951 | 0.96 | 0.776 | 1.06 | 1.09 | 0.968 | 0.721 | 0.615 | 0.593 | 0.623 | 0.747 | 0.622 | 0.511 | 0.68 | 0.582 | 0.732 | 0.53
14 | NCI-H322M |  | 0.872 | 1.07 | 0.963 | 0.903 |  | 0.948 | 1.06 | 0.925 | 0.931 |  | 0.582 | 0.611 | 0.568 | 0.614 |  | 0.529 | 0.555 | 0.397 | 0.487
15 | NCI-H358 | 0.762 | 0.856 | 0.924 | 0.941 | 0.94 |  | 0.945 | 1.09 | 0.976 | 0.746 | 0.206 | 0.173 | 0.165 | 0.146 | 0.176 |  | 0.861 | 0.722 | 0.739 | 0.67
16 | NCI-H727 | 0.941 | 0.913 | 1.06 | 0.897 | 1 | 0.853 | 0.941 | 0.899 | 0.983 | 0.927 |  |  |  |  |  | 0.592 | 0.576 | 0.513 | 0.809 | 0.534
17 | NCI-H1299 | 0.993 | 1 | 1.01 | 0.968 | 1.02 | 1.01 | 1.04 | 1.03 | 1.02 | 0.99 |  |  |  |  |  |  |  |  |  | 
18 | NCI-H1623 | 0.762 | 0.883 | 0.959 | 1.01 | 0.984 | 0.812 | 0.975 | 0.999 | 0.982 | 0.897 |  |  |  |  |  | 0.435 | 0.727 | 0.468 | 0.43 | 0.376
19 | NCI-H1703 | 0.816 | 0.839 | 0.852 | 0.878 | 1.11 | 0.699 | 1.07 | 0.959 | 0.956 | 0.904 |  |  |  |  |  |  |  |  |  | 
